For this assay, the system named is all Gram-positive bacteria tested. In words: inhibition of bacterial growth, span over the Gram-positive panel. The assay is classed as cell-based, S. aureus, E. faecalis, E. faecium. The conditions noted are these: SSA 5.0 mM, 20 hours; read-out: inhibition against all Gram-positive bacteria tested (span). The method, then:
With the self-associative properties of 1–10 established, the antimicrobial activity of these SSAs were determined against a panel of clinically relevant, high-priority pathogens including: P. aeruginosa PAO1; Klebsiella pneumonia (K. pneumoniae) M6; E. coli NCTC 12923; Acinetobacter baumannii (A. baumannii) ATCC 17978; S. aureus ATCC 9144; Enterococcus faecalis (E. faecalis) NCTC 775; and Enterococcus faecium (E. faecium) NCTC 12204. […] However, it should be noted that the SSA stock solution was prepared in a H2O 5% EtOH solution, to ensure that the SSA aggregates formed were in line with those characterised within the scope of the SSA self-association studies.
Section 3: Biological methods
These methods were taken directly from UK Health and Security Office (UKHSA) standard […]
Preparation of Luria Broth media (LB): Yeast extract (5.0 g), tryptone (10.0 g) and sodium chloride (10.0 g) were dissolved in dH₂O (1.0 L) then divided into bottles and autoclaved.
Preparation of Luria Broth (LB) agar plates: Agar (6.0 g) was added to LB (400 mL) and autoclaved. […]
Preparation of 96 well microplate for MIC50: The 1:100 cell suspension (150 µL) was dispensed into individual wells under sterile conditions. […] The plates were sealed using parafilm, then incubated at 37 °C in a microplate reader for 20 hours. […]

SMILES strings stand for the structures.

One may read the inhibition as how much of the control response was suppressed.

Consider `O=C(O)CC[C@H](NC(=O)Nc1ccc(C(F)(F)F)cc1)C(=O)O` [SSA 2], for which the inhibition at 5000 µM lay in the range of 22 to 80%.

The values are drawn from PMC12645191, “Dicarboxylate and dicarboxylic acid appended supramolecular self-associating amphiphiles as antimicrobial agents against high priority bacterial pathogens” (Organic & Biomolecular Chemistry, 2025).
